Source: paper PMC8261488, “Contraceptive progestins with androgenic properties stimulate breast epithelial cell proliferation” (EMBO Molecular Medicine, 2021)

How the values were obtained:
Assay type in all cases: cell-based
[1] = system: Rankl; assay: Rankl induction by R5020 or LNG in mouse mammary organoids co-treated with AR antagonists; conditions: antagonist 100 µM, 6 h, C57Bl6-derived organoids
Procedure: (§1) Enzalutamide (100 µM) abrogated Rankl induction by R5020 (P < 0.05) but had no effect on Wnt4 induction (Fig 1H).
(§2) Animal experiments were performed in accordance with protocol approved by the Service de la Consommation et des Affaires vétérinaires of Canton de Vaud (VD 1865.3, VD 1865.4). NOD. Cg‐Prkdc^scid Il2rg^tm1Wjl/SzJ mice (Charles River), BalbC, and C57Bl6 breeders were purchased from Jackson Laboratories. Mammary glands were isolated from 18‐ to 35‐week‐old mice, lymph nodes removed, minced with surgical blades, and digested in DMEM/F12, 1% penicillin/streptomycin B with collagenase A 0.25 mg/ml (Roche). Tissue was concomitantly stimulated with hormones for 1, 2, or 6 h and centrifuged at 652 g for 5 min. Fat was removed, and pellet containing organoids washed with phosphate‐buffered saline (PBS), resuspended 5 min in 3 ml red cell blood lysis buffer and washed twice with PBS.
(§3) Human breast microstructures and mouse organoids were homogenized in Trizol (Invitrogen). Aqueous phase containing RNA was chloroform extracted and processed with miRNeasy extraction kit (Qiagen). cDNA was synthesized using random p(dN)6 primers (Roche) and MMLV reverse transcriptase (Invitrogen). SYBR Green PCR Core Reagent System (Qiagen) was used for semi‐quantitative real time (RT‐PCR) using the following primers.

[2] = system: Wnt4; assay: Wnt4 induction by R5020 or LNG in mouse mammary organoids co-treated with AR antagonists; conditions: antagonist 100 µM, 6 h, C57Bl6-derived organoids
Procedure: as §1, §2, §3

[3] = system: mouse mammary organoids; assay: RNA sequencing of mouse mammary organoids stimulated ex vivo with R5020; conditions: R5020 20 nM, 6 h, n = 3
Description: To test this hypothesis, we sought for biological readouts in physiologically relevant models. First, we recurred to using an ex vivo assay for the transcriptional response of the mouse mammary epithelium to hormones. We isolated mammary glands from several inbred adult female mice, treated them mechanically and enzymatically to generate epithelial‐enriched organoids, which remain hormone‐responsive (Ayyanan et al, 2011), and exposed them either to vehicle or to the stable progesterone mimic promegestone (R5020, 20 nM) for 6 h and performed RNA sequencing (Fig 1A). Three independent experiments were performed, and principal component analysis (PCA) grouped the samples according to treatment (Fig 1B). […] Together, these observations confirm that PR signaling is intact in this ex vivo model and that the functionally important factors, Rankl and Wnt4, are robust PR target genes in the mouse mammary epithelium.
as §2
(§4) RNAseq libraries were prepared using Truseq Stranded RNA producing single‐end reads of 100 bp and sequenced on Illumina Hiseq 2500 instrument. […]
(§5) Sequencing reads were quality controlled using FastQC (v0.11.8) (Wingett & Andrews, 2018). Mouse raw reads were aligned to the mouse genome (mm9) and human raw reads to the human genome (hg19) using TopHat (v2.0.11) (Kim et al, 2013). […]

[4] = system: human breast tissue microstructures (EpCAM+ cells); assay: RNA sequencing of EpCAM+ cells from human breast tissue microstructures stimulated ex vivo; conditions: 14–18 h exposure, n = 3
Description: Having ascertained with mammary tissue from inbred mice that androgenic and anti‐androgenic progestins have different effects on the expression of important PR target genes, we set out to assess the transcriptional response to PR signaling in the human breast epithelium. In view of our goal to perform in vivo experiments with the natural ligand progesterone, we compared the effects of progesterone to those of its stable analog R5020 which is commonly used for in vitro experiments on breast epithelial cells. For this, we used an ex vivo approach with human breast tissue similar to the mouse organoid technique used above that maintains hormone responsiveness (Tanos et al, 2013; Sflomos et al, 2015). In brief, 3 fresh mammoplasty tissue from women with follicular phase progesterone levels were cut into 1 mm^3 pieces and aliquoted for digestion with collagenase and concomitant exposure to either vehicle, R5020, or progesterone for 14–18 h. Tissue microstructures that contain epithelial cells, immune cells, and fibroblasts in varying proportions were recovered. To reduce interpatient variation as far as it relates to different ratios of various cell types, at the end of the treatment, the tissue microstructures were dissociated to single cells and enriched for epithelial cells by FACS sorting with antibodies against the epithelial cell surface marker EpCAM (Fig 2A). The EpCAM^+ cells were processed for RNA sequencing. […] Progesterone affected expression levels of 65 genes, whereas R5020 affected 112 genes, including RANKL (adj.P < 0.05) (Appendix Fig S2A). More than 90% of the progesterone‐induced gene expression changes were induced by R5020 (Fig 2C). […] R5020 induced higher‐fold changes as indicated by the estimated slope of the curve being > 1 (P < 0.0001). […]
All experiments conformed to the principles set out in the WMA Declaration of Helsinki and the Department of Health and Human Services Belmont Report. […] Human tissue samples were mechanically and enzymatically dissociated, single cells were prepared, counted, and spin infected using Lenti‐ONE CMV‐GFP(2A)Luc2 WPRE VSV, V621004001, or pR980 Luc2GFP (GEGTECH) at a multiplicity of infection of 1 at 2.500 rpm for 3 h at room temperature in 500 μl of serum‐free medium. […]
as §4, §5

[5] = system: Wnt4; assay: Wnt4 transcript levels by RT-PCR in mouse mammary organoids stimulated ex vivo
Procedure: (§6) Next, we stimulated mouse mammary organoids derived from several BalbC females with R5020 or different progestins (Fig 1A). […] No significant change in Rankl and Wnt4 transcript levels was detected during the first 2 h (Appendix Fig S1D). By 6 h of R5020 stimulation, Rankl and Wnt4 transcript levels increased 22.4 and 5.8‐fold over the vehicle‐treated control, respectively.
as §2, with “Tissue was concomitantly stimulated with hormones for 1, 2, or 6 h and centrifuged at 652 g for 5 min.” left out
as §3

[6] = system: Rankl; assay: Rankl transcript levels by RT-PCR in mouse mammary organoids stimulated ex vivo
Procedure: as §6
as §2, with “Tissue was concomitantly stimulated with hormones for 1, 2, or 6 h and centrifuged at 652 g for 5 min.” left out
as §3

[7] = BalbC females, 6 h of stimulation
[8] = BalbC-derived organoids, 24 h of stimulation

| Compound | effect of AR antagonist on Rankl induction by R5020 [1] | effect of AR antagonist on Wnt4 induction by R5020 [2] | Pgr transcripts, down-modulation (RNA sequencing) [3] [fold] | Rankl transcripts, induction over control samples (RNA sequencing) [3] [fold] | Wnt4 induction (RNA sequencing) [3] [fold] | RANKL expression (variant stabilized gene expression values) [4] | WNT4 expression (variant stabilized gene expression values) [4] | Wnt4 transcript levels over vehicle-treated control [5, 7] [fold] | Wnt4 transcript induction [5, 8] [fold] | Wnt4 transcript induction ([5]; C57Bl/6 mice, 6 h, 20 nM) [fold] | Rankl transcript levels over vehicle-treated control [6, 7] [fold] | Rankl transcript induction [6, 8] [fold] | Rankl transcript induction ([6]; C57Bl/6 mice, 6 h, 20 nM) [fold] |
| --- | --- | --- | --- | --- | --- | --- | --- | --- | --- | --- | --- | --- | --- |
| CC(O)(CS(=O)(=O)c1ccc(F)cc1)C(=O)Nc1ccc(C#N)c(C(F)(F)F)c1 (stereo not shown) [bicalutamide] | abrogated | no significant effect | – | – | – | – | – | – | – | – | – | – | – |
| CCC(=O)[C@@]1(C)CC[C@H]2[C@@H]3CCC4=CC(=O)CCC4=C3CC[C@@]21C [R5020, promegestone] | – | – | 0.2 | 10.07 | 3.1 | increased expression | increased expression | 5.8 | 26 | 4.2 | 22.4 | 83 | 10.9 |
